Source: the supplement of paper PMC10307832

Legend:
Assay in all cases: relative viability (nuclei count vs DMSO), 5 days (fraction); higher = more cells survive
[1] = compound: CC1=CC(=NN1)NC2=CC(=NC(=N2)/C=C/C3=CC=CC=C3)N4CCN(CC4)C + O=C(CCCCCCC(=O)Nc1ccccc1)NO [Vorinostat] (partner 1 µM)
Procedure, shortened: (§1)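 A single step with final 0.05% Triton X-100, 1% formaldehyde and 1 ug/ml Hoechst fixed the cells and stained nuclei 5 days after treatment. Lung cancer cell lines in 1536-well plates had been treated by pin tool the day after seeding with one drug alone or a fixed anchor-drug dose plus five library-drug doses (not always all listed) in √10 steps, and nuclei were counted on 4× images. Relative viability is the ratio of nuclei in treated wells to nuclei in vehicle wells, taken as the median of duplicate plates.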

Obatoclax + Trametinib = compound: COC1=CC(c2cc3ccccc3[nH]2)=N/C1=C\c1[nH]c(C)cc1C [Obatoclax] + CC(=O)Nc1cccc(-n2c(=O)n(C3CC3)c(=O)c3c(Nc4ccc(I)cc4F)n(C)c(=O)c(C)c32)c1 [Trametinib] (partner 0.02 µM)
Procedure, shortened: as §1

Obatoclax + Dasatinib = compound: COC1=CC(c2cc3ccccc3[nH]2)=N/C1=C\c1[nH]c(C)cc1C [Obatoclax] + Cc1nc(Nc2ncc(C(=O)Nc3c(C)cccc3Cl)s2)cc(N2CCN(CCO)CC2)n1 [Dasatinib] (partner 0.075 µM)
Procedure, shortened: as §1

Obatoclax + Olaparib = compound: COC1=CC(c2cc3ccccc3[nH]2)=N/C1=C\c1[nH]c(C)cc1C [Obatoclax] + O=C(c1cc(Cc2n[nH]c(=O)c3ccccc23)ccc1F)N1CCN(C(=O)C2CC2)CC1 [Olaparib] (partner 8 µM)
Procedure, shortened: as §1

| Cell Line | relative viability ([1]; first compound 0.08 µM) | relative viability ([1]; first compound 0.253 µM) | relative viability ([1]; first compound 0.8 µM) | relative viability ([1]; first compound 2.53 µM) | relative viability ([1]; first compound 8 µM) | relative viability (Obatoclax + Trametinib; first compound 0.01 µM) | relative viability (Obatoclax + Trametinib; first compound 0.03162 µM) | relative viability (Obatoclax + Trametinib; first compound 0.1 µM) | relative viability (Obatoclax + Trametinib; first compound 0.3162 µM) | relative viability (Obatoclax + Trametinib; first compound 1 µM) | relative viability (Obatoclax + Dasatinib; first compound 0.01 µM) | relative viability (Obatoclax + Dasatinib; first compound 0.03162 µM) | relative viability (Obatoclax + Dasatinib; first compound 0.1 µM) | relative viability (Obatoclax + Dasatinib; first compound 0.3162 µM) | relative viability (Obatoclax + Dasatinib; first compound 1 µM) | relative viability (Obatoclax + Olaparib; first compound 0.01 µM) | relative viability (Obatoclax + Olaparib; first compound 0.03162 µM) | relative viability (Obatoclax + Olaparib; first compound 0.1 µM) | relative viability (Obatoclax + Olaparib; first compound 0.3162 µM) | relative viability (Obatoclax + Olaparib; first compound 1 µM) |
| --- | --- | --- | --- | --- | --- | --- | --- | --- | --- | --- | --- | --- | --- | --- | --- | --- | --- | --- | --- | --- |
| PC-14 | 0.673 | 0.732 | 0.491 | 0.0475 | 0.041 | 0.719 | 0.665 | 0.513 | 0.104 | 0.0647 | 0.285 | 0.286 | 0.225 | 0.0723 | 0.0415 | 0.285 | 0.306 | 0.14 | 0.0684 | 0.081 |
| NCI-H2087 | 0.697 | 0.954 | 0.72 | 0.324 | 0.141 | 0.2 | 0.204 | 0.22 | 0.145 | 0.122 | 0.837 | 0.747 | 0.723 | 0.361 | 0.135 | 0.588 | 0.596 | 0.436 | 0.451 | 0.226 |
| HOP-62 | 0.603 | 0.566 | 0.637 | 0.387 | 0.129 | 0.406 | 0.318 | 0.389 | 0.388 | 0.408 | 0.718 | 0.64 | 0.439 | 0.787 | 0.534 | 0.292 | 0.352 | – | 0.434 | 0.405 |
| EKVX | 0.702 | 0.82 | 0.794 | 0.571 | 0.289 | 0.321 | – | 0.464 | 0.307 | 0.292 | 0.567 | 0.491 | 0.539 | 0.594 | 0.522 | 0.842 | – | 0.966 | 0.888 | 0.648 |
| EMC-BAC-2 | 0.416 | 0.428 | 0.354 | 0.171 | 0.0976 | 0.959 | 0.937 | – | 0.89 | 0.557 | 0.357 | 0.325 | 0.255 | 0.264 | 0.284 | 0.491 | 0.514 | 0.418 | 0.478 | 0.43 |
| HARA | 0.545 | 0.689 | 0.459 | 0.26 | 0.0694 | 0.658 | 0.926 | 0.83 | 0.768 | 0.705 | 0.226 | 0.233 | 0.335 | 0.358 | 0.255 | 0.639 | 0.962 | 1.03 | 0.99 | 0.89 |
| LU99A | 0.481 | 0.434 | 0.425 | 0.182 | 0.0957 | 0.598 | 0.55 | – | 0.631 | 0.557 | 0.471 | 0.568 | 0.575 | 0.434 | 0.261 | 0.292 | 0.243 | – | 0.313 | 0.321 |
| LK-2 | 0.254 | 0.155 | 0.283 | 0.223 | 0.126 | 0.846 | 0.794 | 1.02 | 0.783 | 0.914 | 0.329 | 0.263 | 0.394 | 0.375 | 0.229 | 0.806 | 0.81 | 0.768 | 0.695 | 0.762 |
| NCI-H441 | 0.569 | 0.768 | 0.58 | 0.498 | 0.138 | 0.505 | 0.353 | 0.427 | 0.27 | 0.194 | 0.537 | 0.634 | 0.542 | 0.402 | 0.208 | 0.63 | 0.6 | 0.527 | 0.359 | 0.288 |
| NCI-H23 | 0.485 | 0.756 | 0.457 | 0.141 | 0.0948 | 0.384 | 0.442 | 0.451 | 0.357 | 0.363 | 0.826 | 0.838 | 0.825 | 0.757 | 0.306 | 0.288 | 0.369 | 0.398 | 0.28 | 0.206 |
| NCI-H647 | 0.58 | 0.626 | 0.391 | 0.128 | 0.0534 | 0.406 | 0.475 | 0.422 | 0.22 | 0.127 | 0.258 | 0.164 | 0.149 | 0.0862 | 0.0719 | 0.633 | 0.539 | 0.547 | 0.174 | 0.067 |
| 201T | 1 | 1.13 | 0.997 | 0.879 | 0.449 | 0.713 | 0.737 | 0.776 | 0.722 | 0.752 | 0.599 | 0.412 | 0.588 | 0.569 | 0.6 | 0.873 | 0.782 | 0.838 | 0.823 | 0.831 |
| NCI-H1734 | 0.745 | 0.757 | 0.694 | 0.22 | 0.187 | 0.636 | 0.744 | 0.688 | 0.681 | 0.689 | 0.493 | 0.287 | 0.427 | 0.375 | 0.2 | 0.609 | 0.624 | 0.601 | 0.546 | 0.505 |
| NCI-H596 | 0.557 | 0.633 | 0.577 | 0.42 | 0.139 | 0.814 | 0.784 | 0.692 | 0.652 | 0.565 | 0.618 | 0.475 | 0.464 | 0.502 | 0.394 | 0.671 | 0.675 | 0.552 | 0.492 | 0.458 |
